Laboratory results: US8138360B2, “Isotopically-labeled benzofuran compounds as imaging agents for amyloidogenic proteins” (University of Pittsburgh—of the Commonwealth System of …, priority 2005, dated 2012)

How the values were obtained:
synthetic Aβ(1-40) = target: T1, synthetic Aβ(1-40) (Homo sapiens, UniProt P05067); experiment: Competition of [3H]BTA-1 binding from synthetic Aβ(1-40); details: for Ki: inhibition constant for competition of [3H]BTA-1 binding from synthetic Aβ(1-40), phosphate-buffered saline pH 7.4
T1 construct: host or cells: chemically synthesised peptide
T1 sequence (P05067 672-711): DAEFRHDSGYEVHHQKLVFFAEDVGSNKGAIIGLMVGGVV
Method: (§1) The characteristics of benzofuran derivative binding were analyzed using synthetic Aβ(1-40) and 2-(4′-[^3H]methylamino-phenyl)-benzothiazole ([^3H]BTA-1) in phosphate-buffered saline (pH 7.4) as previously described. Klunk et al., Life Sci. 69:1471 (2001); Mathis et al., Bioorg. Med. Chem. Lett., 12:295 (2002).
as §1, with “7.4),” for “7.4)”, “(2002). The table below lists the inhibition constants (Ki) of the four compounds shown for competition of [^3H]BTA-1 binding from synthetic Aβ(1-40).” for “(2002).”

[1] = Baboon brain entry study (PET); assay type: in vivo; details: 40 kg baboon, 8 mCi intravenously, PET imaging over 2 h post injection
Method: A 40 kg baboon was anesthetized, immobilized, and placed on a ventilator. The baboon was positioned in a PET scanner to image the brain, and a transmission scan was performed to correct for attenuation. The baboon was injected intravenously with a solution containing 8 mCi of 5-Methoxy-2-(4′-fluorophenyl)benzofuran, and the brain was imaged in a series of increasing data collection time bins over 2 h post injection. Following data acquisition, the images were reconstructed and regions of interest were drawn. Decay and […] corrected time-activity curves (TAC) were generated for each of the regions to determine the quantitative time course of radioactivity in each brain region.

Compound	Ki (synthetic Aβ(1-40)) [nM]	further results
Oc1ccc2oc(-c3ccc(F)cc3)cc2c1	27.7	
COc1ccc2cc(-c3ccc(F)cc3)oc2c1	3.9	
COc1ccc2oc(-c3ccc(F)cc3)cc2c1 [5-Methoxy-2-(4′-fluorophenyl)benzofuran]		affinity of the ligand in vitro for aggregated amyloid (synthetic Aβ(1-40); in vitro, in words): relatively high affinity; brain penetration of the radiotracer (time-activity curves) [1]: excellent brain penetration; clearance of radioactivity from normal baboon brain (time-activity curves) [1]: rapid clearance
CNc1ccc2oc(-c3ccc(F)cc3)cc2c1	2.8	
CN(C)c1ccc2oc(-c3ccc(F)cc3)cc2c1	2	

Second part, led by results:

Ki (synthetic Aβ(1-40)) [nM]	Compound	further results
3.7	COc1ccc2oc(-c3ccc(F)cc3)cc2c1 [drawing 23]	
1.2	Oc1ccc2oc(-c3ccc(OCCCF)cc3)cc2c1	
28	Nc1ccc2oc(-c3ccc(F)cc3)cc2c1	
96	Oc1ccc2cc(-c3ccc(F)cc3)oc2c1	
